# Laboratory results taken from patent publication US12037344B2, “NLRP3 modulators” (INNATE TUMOR IMMUNITY, INC., priority 2018, dated 2024).
# pEC50: −log10 of the molar value.
# Experiments:
# TLR8 = biological target: T1, TLR8 (Homo sapiens, UniProt Q9NR97); experiment: In vitro human TLR8 binding reporter assay (HEK-Blue, NF-kB/AP1-inducible SEAP); type: cell-based; details: activity range class, read-out: TLR8 Agonist EC50
# T1 construct: human HEK-Blue cells co-expressing a TLR7 or TLR8 gene
# T1 sequence (Q9NR97 27-1041): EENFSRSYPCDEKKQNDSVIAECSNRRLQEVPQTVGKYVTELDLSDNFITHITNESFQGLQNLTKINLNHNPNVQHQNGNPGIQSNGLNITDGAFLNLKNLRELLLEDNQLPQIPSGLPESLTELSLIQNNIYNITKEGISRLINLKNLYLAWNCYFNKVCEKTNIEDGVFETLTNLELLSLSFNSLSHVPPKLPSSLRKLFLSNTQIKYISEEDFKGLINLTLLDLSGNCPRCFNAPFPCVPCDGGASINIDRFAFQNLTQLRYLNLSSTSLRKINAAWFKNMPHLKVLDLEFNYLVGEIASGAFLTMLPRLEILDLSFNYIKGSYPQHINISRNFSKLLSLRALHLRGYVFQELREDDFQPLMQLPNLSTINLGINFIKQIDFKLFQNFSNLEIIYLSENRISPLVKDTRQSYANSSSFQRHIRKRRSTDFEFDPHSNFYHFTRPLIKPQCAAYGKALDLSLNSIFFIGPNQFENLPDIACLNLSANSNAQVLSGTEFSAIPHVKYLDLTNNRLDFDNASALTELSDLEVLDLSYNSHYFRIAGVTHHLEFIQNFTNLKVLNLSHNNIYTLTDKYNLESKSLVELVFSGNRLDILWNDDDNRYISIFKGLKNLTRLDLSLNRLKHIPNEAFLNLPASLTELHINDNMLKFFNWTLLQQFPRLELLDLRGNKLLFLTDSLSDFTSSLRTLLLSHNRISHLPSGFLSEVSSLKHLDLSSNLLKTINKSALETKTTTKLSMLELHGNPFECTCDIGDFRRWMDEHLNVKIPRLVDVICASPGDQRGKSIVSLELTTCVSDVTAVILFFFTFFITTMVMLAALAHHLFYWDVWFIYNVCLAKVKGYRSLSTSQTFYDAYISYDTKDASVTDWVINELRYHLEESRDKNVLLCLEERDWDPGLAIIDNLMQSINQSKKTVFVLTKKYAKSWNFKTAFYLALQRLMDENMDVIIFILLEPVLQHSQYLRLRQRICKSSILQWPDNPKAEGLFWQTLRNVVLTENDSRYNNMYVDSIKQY
# Procedure, shortened: (§1)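 EC50s come from NF-kB/AP1-driven SEAP secretion in HEK-Blue cells expressing TLR7 or TLR8, measured with Quanti-Blue after an 18 h compound incubation. Maximal response is defined by a 50 μM reference standard.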
# THP-1 cells = experiment: Measurement of IL-1β production, hTRF protocol (second alternative procedure), THP-1 cells; type: cell-based, human; details: Homo sapiens, THP-1, IL-1β production, human; read-out: NLRP3 hILIB EC50
# Procedure, shortened: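 THP-1 cells differentiated overnight with 50 ng/ml PMA, then plated at 50,000 cells/well in RPMI with 2% FBS onto serial compound dilutions (top final concentration 10 μM) for 2 hours at 37° C. Supernatant IL-1β measured by hTRF (antibodies at 1:40, overnight at 4° C), read at 665/615 nm against a standard curve.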
# TLR7 = biological target: T2, TLR7 (Homo sapiens, UniProt Q9NYK1); experiment: In vitro human TLR7 binding reporter assay (HEK-Blue, NF-kB/AP1-inducible SEAP); type: cell-based; details: activity range class, read-out: TLR7 Agonist EC50
# T2 construct: human HEK-Blue cells co-expressing a TLR7 or TLR8 gene
# T2 sequence (Q9NYK1 27-1049): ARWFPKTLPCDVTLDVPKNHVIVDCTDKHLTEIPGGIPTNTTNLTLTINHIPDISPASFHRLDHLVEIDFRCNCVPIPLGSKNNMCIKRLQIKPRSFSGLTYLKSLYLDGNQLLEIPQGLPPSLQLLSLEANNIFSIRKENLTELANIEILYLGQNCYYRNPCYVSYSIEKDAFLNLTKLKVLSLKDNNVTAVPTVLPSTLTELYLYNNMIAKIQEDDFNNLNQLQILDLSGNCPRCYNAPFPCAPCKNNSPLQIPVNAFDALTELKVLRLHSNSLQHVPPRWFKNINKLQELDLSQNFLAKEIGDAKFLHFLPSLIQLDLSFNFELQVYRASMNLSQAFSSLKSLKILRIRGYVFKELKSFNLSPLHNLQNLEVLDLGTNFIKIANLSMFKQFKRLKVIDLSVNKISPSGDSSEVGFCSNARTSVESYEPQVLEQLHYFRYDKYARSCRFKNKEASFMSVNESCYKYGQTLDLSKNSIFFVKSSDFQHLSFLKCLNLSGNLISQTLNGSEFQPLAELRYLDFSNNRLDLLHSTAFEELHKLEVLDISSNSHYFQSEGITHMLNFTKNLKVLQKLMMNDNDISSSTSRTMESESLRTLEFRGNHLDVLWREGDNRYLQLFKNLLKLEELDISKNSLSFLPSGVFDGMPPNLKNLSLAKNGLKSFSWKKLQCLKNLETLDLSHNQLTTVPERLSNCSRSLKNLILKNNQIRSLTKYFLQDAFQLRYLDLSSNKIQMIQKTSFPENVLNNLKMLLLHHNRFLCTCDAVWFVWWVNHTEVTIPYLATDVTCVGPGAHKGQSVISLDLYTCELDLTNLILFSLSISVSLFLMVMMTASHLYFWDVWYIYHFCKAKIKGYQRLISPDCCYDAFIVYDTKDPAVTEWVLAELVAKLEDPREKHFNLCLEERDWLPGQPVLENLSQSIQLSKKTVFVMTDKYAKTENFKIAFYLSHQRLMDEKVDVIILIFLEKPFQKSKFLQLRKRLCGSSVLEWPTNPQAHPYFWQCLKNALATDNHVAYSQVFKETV
# Procedure, shortened: as §1
Structure (SMILES),pEC50 (TLR8),pEC50 (THP-1 cells),pEC50 (TLR7)
Nc1nc2cc(-c3cc[nH]n3)ccc2c2nn(CCCN3CCOCC3)cc12 [Example 213],< 4.00,5.49,< 4.00
Nc1nc2cc(-c3cc[nH]n3)ccc2c2c1cnn2CCCN1CCOCC1 [Example 214],< 4.00,5.34,< 4.00
Nc1nc2cc(-c3cc[nH]n3)ccc2c2nn(CCCO)cc12 [Example 215],< 4.00,6.40,< 4.00
Nc1nc2cc(-c3cc[nH]n3)ccc2c2c1cnn2CCCO [Example 216],< 4.00,5.52,< 4.00
Nc1nc2cc(-c3cc[nH]n3)ccc2c2c1cnn2CCO [Example 217],< 4.00,5.93,< 4.00
COCCCCn1cc2c(N)nc3cc(-c4cc[nH]n4)ccc3c2n1 [Example 218],< 4.00,6.70,< 4.00
COCCCCn1ncc2c(N)nc3cc(-c4cc[nH]n4)ccc3c21 [Example 219],< 4.00,6.52,< 4.00
CCCn1cc2c(N)nc3cc(-c4cc[nH]n4)ccc3c2n1 [Example 220],< 4.00,6.92,< 4.00
CCCn1ncc2c(N)nc3cc(-c4cc[nH]n4)ccc3c21 [Example 221],< 4.00,6.68,< 4.00
CCOCCn1cc2c(N)nc3cc(-c4cc[nH]n4)ccc3c2n1 [Example 222],< 4.00,6.57,< 4.00
CCOCCn1ncc2c(N)nc3cc(-c4cc[nH]n4)ccc3c21 [Example 223],< 4.00,6.35,< 4.00
Nc1nc2cc(-c3cc[nH]n3)ccc2c2nn(CC(F)F)cc12 [Example 224],< 4.00,6.85,< 4.00
Nc1nc2cc(-c3cc[nH]n3)ccc2c2c1cnn2CC(F)F [Example 225],< 4.00,6.70,< 4.00
Cc1cc(Cn2cc3c(N)nc4cc(-c5cc[nH]n5)ccc4c3n2)no1 [Example 226],< 4.00,6.36,< 4.00
Nc1nc2cc(-c3cc[nH]n3)ccc2c2c1cnn2CCc1ccccn1 [Example 227],< 4.00,5.74,< 4.00
COCCCn1ncc2c(N)nc3cc(-c4cc[nH]n4)ccc3c21 [Example 228],< 4.00,6.52,< 4.00
Nc1nc2cc(-c3cc[nH]n3)ccc2c2nn(CC3CCCO3)cc12 (stereo not drawn) [Example 229],< 4.00,7.10,< 4.00
Nc1nc2cc(-c3cc[nH]n3)ccc2c2c1cnn2CC1CCCO1 (stereo not drawn) [Example 230],< 4.00,6.06,< 4.00
